Among the data in patent publication US10047081B2, “BACE1 inhibitors” (Hoffmann-La Roche Inc., priority 2015, dated 2018) are GSH human, IC50 and in vivo effect values, retold here.

Data set [1] is described as follows: GSH human, in vitro adduct formation. It counts as in vitro ADME. The settings on record: in vitro adduct formation relative to control. Further details: key: NF = in vitro no significant adduct formation relative to control.
Data set [2] concerns the target T1, recombinant human cathepsin E (Homo sapiens, UniProt P14091).
T1 construct: purchased R&D Systems
T1 sequence (P14091 54-396): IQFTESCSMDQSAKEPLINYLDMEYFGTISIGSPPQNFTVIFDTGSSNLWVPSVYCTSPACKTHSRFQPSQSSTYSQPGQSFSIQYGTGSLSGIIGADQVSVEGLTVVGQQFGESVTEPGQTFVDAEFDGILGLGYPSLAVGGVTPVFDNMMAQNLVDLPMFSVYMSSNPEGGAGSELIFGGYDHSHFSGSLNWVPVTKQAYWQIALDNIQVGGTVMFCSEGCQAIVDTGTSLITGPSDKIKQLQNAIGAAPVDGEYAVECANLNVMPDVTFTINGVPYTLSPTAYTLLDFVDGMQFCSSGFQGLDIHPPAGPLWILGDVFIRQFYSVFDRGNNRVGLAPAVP
Nature of the data set: Cathepsin E fluorescent substrate kinetic assay. It counts as biochemical. The conditions noted are these: pH 4.5, substrate MR121-CKLVFFAEDW
The source says: Cathepsin D and Cathepsin E Fluorescent Substrate Kinetic Assays
The MR121 fluorescence assays described below are based on the fact that MR121 forms a non-fluorescent ground state complex with tryptophan. In solution this formation occurs at millimolar concentrations of tryptophan. The mechanism can be used to design a generic biochemical assay for proteases. A substrate peptide is labeled at the N-terminus with tryptophan and at the C-terminus with the fluorophore MR121 (for cathepsin D the 10 amino acid peptide WTSVLMAAPC-MR121 was used; for cathepsin E, MR121-CKLVFFAEDW was used). In absence of protease activity, the substrates remain intact and the MR121 fluorescence is reduced by the high local Trp-concentration. If the substrates are cleaved by the enzymes the MR121 fluorescence is recovered.
The fluorescent substrate cathepsin D and cathepsin E kinetic assays were performed at room temperature in 384-well microtiter plates (black with clear flat bottom, non-binding surface plates from Corning) in a final volume of 51 μl. The test compounds were serially diluted in DMSO (15 concentrations, ⅓ dilution steps) and 1 μl of diluted compounds were mixed for 10 min with 40 μl of cathepsin D (from human liver, Calbiochem) diluted in assay buffer (100 mM sodium acetate, 0.05% BSA, pH 5.5; final concentration:200 nM) or with 40 μl of recombinant human cathepsin E (R&D Systems) diluted in assay buffer (100 mM sodium acetate, 0.05% BSA, pH 4.5; final concentration:0.01 nM). After addition of 10 μl of the cathepsin D substrate WTSVLMAAPC-MR121 diluted in cathepsin D assay buffer (final concentration:300 nM) or 10 μl of the cathepsin E substrate MR121-CKLVFFAEDW diluted in cathepsin E assay buffer (final concentration:300 nM), the plates were strongly shaken for 2 minutes. The enzymatic reaction was followed in a plate: vision reader (Perkin Elmer) (excitation wavelength:630 nm; emission:695 nm) for at least 30 minutes in a kinetic measurement detecting an increase of MR121 fluorescence during the reaction time. The slope in the linear range of the kinetic was calculated and the IC50 of the test compounds were determined using a four parameter equation for curve fitting.

Another data set concerns Aβ40 in brain. Kind of data set: Lowering of Aβ40 in brain of wild-type mice. Type of data set: in vivo. The conditions noted are these: brain Aβ40 as % of control (vehicle group), 30 mg/kg per os, mouse, after 4 h. Here is the method: Lowering of Aβ40 in Brain of Wild-Type Mice:
Animals and Housing Conditions.
Animals were maintained in a 12/12 h light/dark cycle, with lights starting at 6 a.m., and experiments were conducted during the light phase. Animal housing and experimental procedures were in line with ethical and legal guidelines and were authorized by local veterinary authorities.
Female C57B1/6J mice were treated with a dose of 30 mg/kg of the compounds, 3-4 animals per treatment group. The test compound was dissolved in 5% EtOH, 10% Solutol, and was applied per os at 10 mL/kg. After 4 h, the animals were sacrificed and brain and plasma were collected. The brain was cut into halves and immediately frozen on dry ice. Brain was used for measurement of Aβ40 and plasma was used for determination of compound exposure. […] Brain tissue was homogenized in 2% DEA buffer in a Roche MagnaLyser (20″, 4000 rpm) and subsequently centrifuged for 1 h at 100000 g. DEA was reduced to 0.2% in 50 mM NaCl and one-half of the DEA lysate was passed over an Oasis Solid phase extraction plate (Waters; cat. no. 186000679), which had been activated with MeOH and equilibrated in dH2O (1 mL each). After washes in 10% and 30% MeOH (1 mL each), the Aβ-peptides were eluted in 0.8 mL of 2% NH4OH in 90% MeOH. The eluate was dried over a N2 flow, and the dried sample was reconstituted in 30 μL of AlphaLISA assay buffer. Aβ40 was determined by an AlphaLISA assay (Perkin-Elmer). In a white 96-well, half area microplate (Perkin-Elmer cat. no. 6005561), 20 μL of the reconstituted sample were mixed with 5 μL of biotinylated BAP-24 (specific for C-terminus of Aβ40) (Brockhaus, M.; Grunberg, J.; Rohrig, S.; Loetscher, H.; Wittenburg, N.; Baumeister, R.; Jacobsen, H.; Haass, C. Caspasemediated cleavage is not required for the activity of presenilins in amyloidogenesis and NOTCH signaling. NeuroReport 1998, 9, 1481-1486) stock=4.4 mg/mL, f.c.5.5 μg/mL), and 5 μL 252Q6 acceptor beads (252Q6 antibody, Invitrogen AMB0062) had been previously conjugated with AlphaLISA Acceptor beads (Perkin-Elmer cat. no. 6772002); final dilution 1:500). The mix was incubated for 1 h at RT in the dark. Then 20 μL of Streptavin-coated Donor Beads (Perkin-Elmer cat. no. 6760002, final dilution 1:125) were added and this final mix was incubated in the dark for another 30 min at RT before RFU was measured in an AlphaScreen Reader (Perkin-Elmer Envision 2104). The value obtained for Ap40 in the treated animals was related to the value in the vehicle group and is given in %. Alternatively a commercial ELISA was used for Aβ40 determination (Wako ELISA: (“Human/Rat β Amyloid (40) ELISA kit Wako II”; cat nr. 294-64701) following the manufacture's instruction. Also here the Aβ-lowering efficacy was calculated as percentage of the vehicle group.

Usually IC50 stands for the concentration at which inhibition is half-maximal. For `CN=[S@@]1(=O)C[C@@](C)(c2cc(-c3cc(-c4cnc(OCC(F)F)cn4)no3)ccc2F)N=C(N)C1(C)C` [Example 5, (1R,3R)-5-amino-3-(5-(3-(5-(2,2-difluoroethoxy)pyrazin-2-yl)isoxazol-5-yl)-2-fluorophenyl)-3,6,6-trimethyl-1-(methylimino)-3,6-dihydro-2H-1,4-thiazine 1-oxide 2,2,2-trifluoroacetate], the GSH human entry in data set [1] is listed as “NF”. Besides, in data set [2], the half-inhibitory concentration (IC50) turned out to be 78 µM. In the data set on Aβ40 in brain, the in vivo effect result is “A (A = less than 60% of control @ 30 mg/kg mouse)”.
For `CN=[S@@]1(=O)C[C@@](C)(c2cc(-c3cc(-c4ncc(Cl)cn4)no3)ccc2F)N=C(N)C1(C)C` [Example 6, (1R,3R)-5-amino-3-(5-(3-(5-chloropyrimidin-2-yl)isoxazol-5-yl)-2-fluorophenyl)-3,6,6-trimethyl-1-(methylimino)-3,6-dihydro-2H-1,4-thiazine 1-oxide 2,2,2-trifluoroacetate], in data set [1], the GSH human entry is on record as “NF”. Further, in data set [2], the 50% inhibitory concentration (IC50) was determined as 79 µM. For the same molecule, the in vivo effect entry with Aβ40 in brain is “A (A = less than 60% of control @ 30 mg/kg mouse)”.
`CN=[S@@]1(=O)C[C@@](C)(c2cc(-c3cc(-c4cnc(OC)cn4)no3)ccc2F)N=C(N)C1(C)C` [Example 7, (1R,3R)-5-amino-3-(2-fluoro-5-(3-(5-methoxypyrazin-2-yl)isoxazol-5-yl)phenyl)-3,6,6-trimethyl-1-(methylimino)-3,6-dihydro-2H-1,4-thiazine 1-oxide 2,2,2-trifluoroacetate]: the GSH human result in data set [1] is “NF”. Also, the IC50 in data set [2] was 182 µM. In addition, in the data set on Aβ40 in brain, the in vivo effect entry was “B (B = less than 90% of control @ 30 mg/kg mouse)”.
Take `[2H]C([2H])([2H])N=[S@@]1(=O)C[C@@](C)(c2cc(-c3cc(-c4cnc(OC)cn4)no3)ccc2F)N=C(N)C1(C)C` [Example 24, (1R,3R)-3-[2-fluoro-5-[3-(5-methoxypyrazin-2-yl)isoxazol-5-yl]phenyl]-3,6,6-rimethyl-1-oxo-1-(trideuteriomethylimino)-2H-1,4-thiazin-5-amine 2,2,2-trifluoroacetate]: the 50% inhibitory concentration (IC50) in data set [2] worked out at 167 µM. Besides, the in vivo effect entry in the data set on Aβ40 in brain is listed as “A (A = less than 60% of control @ 30 mg/kg mouse)”.
